Data taken from patent US20080065002A1, “Catheter for Localized Drug Delivery and/or Electrical Stimulation” (NEUROSYSTEC CORPORATION, priority 2006, published 2008).

Experiment: Expected decomposition of gacyclidine in solution
Type: physicochemical
Settings: 72 hours at 37° C.
Procedure: The compatibility of gacyclidine in Ringer's Lactate (pH 6.0) in PTFE tubing at room temperature and at 37° C. was evaluated. Three sets of six segments each of PTFE tubing were used. Six samples were collected at each of three time intervals (6 hr, 23 hr and 72 hr). For each set of samples collected, three were incubated at ambient temperature and three were incubated at 37° C. A 16.5 ft. long segment of PTFE tubing (0.010″ ID, 0.018″ OD) was filled with 100 μM gacyclidine in Ringer's Lactate solution (pH 6.0) by use of a glass syringe. The two ends of the tubing were sealed with a paraffin wax vapor barrier. After incubating at room temperature or 37° C. for a specified time, the solution was pumped directly into a glass HPLC autosampler vial insert using an air-filled syringe. The PTFE tubing drug loss in 72 hours at room temperature was 1.3% and at 37° C. was 7.9%. […] The expected amount of decomposition expected in 72 hours at 37° C. is 8.0%.

Compound: CC1CCCCC1(c1cccs1)N1CCCCC1 (stereo not shown) [gacyclidine]
- expected amount of decomposition: 8.0%
